target: T1, His6-PDK1 (aa 52-556) (Homo sapiens, UniProt O15530); test: PDK1 kinase assay III (with Tween 20); assay type: biochemical; details: compound at 10 μM; PDK1 kinase assay III (values without asterisk); read-out: % CTL (residual activity of the enzyme relative to DMSO control)
T1 construct: 15 μL His6-PDK1 (aa 52-556) 3.33 ng/well); host or cells: baculovirus-infected insect cells
T1 sequence (O15530 52-556): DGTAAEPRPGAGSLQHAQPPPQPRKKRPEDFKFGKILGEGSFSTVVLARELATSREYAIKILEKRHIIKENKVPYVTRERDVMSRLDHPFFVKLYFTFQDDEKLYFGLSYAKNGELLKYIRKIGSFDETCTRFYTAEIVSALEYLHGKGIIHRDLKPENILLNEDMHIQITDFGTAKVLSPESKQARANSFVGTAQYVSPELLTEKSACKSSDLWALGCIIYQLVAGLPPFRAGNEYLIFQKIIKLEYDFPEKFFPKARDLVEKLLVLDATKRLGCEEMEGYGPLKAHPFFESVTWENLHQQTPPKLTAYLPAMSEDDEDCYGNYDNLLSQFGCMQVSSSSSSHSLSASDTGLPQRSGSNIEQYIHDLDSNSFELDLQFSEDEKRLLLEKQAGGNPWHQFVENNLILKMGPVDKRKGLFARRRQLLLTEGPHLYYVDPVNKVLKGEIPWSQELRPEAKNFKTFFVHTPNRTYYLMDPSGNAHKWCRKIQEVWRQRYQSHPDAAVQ
Description: Purified enzyme may be obtained for example from the University of Dundee, Scotland.
Another PDK1 assay was developed which by comparison with PDK1 assay 1 additionally contains Tween 20:
The final concentration of Tween 20 is 0.005%.
The reaction is started by adding the ATP solution and the mixture is incubated for 90 min at ambient temperature; at the start of the reaction the dishes are shaken gently. The reaction is stopped by the addition of 50 μL/well of 500 mM phosphoric acid (H3PO4) and incubated for about 20 min at ambient temperature. […] The measured data are evaluated using Graphpad Prism software.
The % CTL values indicate the residual activity of the enzyme after the addition of the inhibitory compound in the solvent DMSO in relation to the enzyme activity in the solvent DMSO without the addition of a compound (control). The majority of the values were determined using the PDK1 kinase assay III described hereinbefore. The values marked with an asterisk (* or**) were determined using the PDK1 kinase assay II described hereinbefore (one asterisk→incubation for 24 h; two asterisks→incubation for 5 min)

Compound | remaining activity at 10 µM [%]
COCCN(C)C(=O)c1ccc(Nc2ncc3cc(C#CCNC(=O)c4cncn(Cc5ccc(F)c(F)c5)c4=O)ccc3n2)cc1 | 12.2
Cc1c(C(=O)NCC#Cc2ccc3nc(Nc4ccc(C(=O)NC5CCN(C)CC5)c(Cl)c4)ncc3c2)c(=O)n(Cc2ccc(F)c(F)c2)n1C | 16.1
Cc1c(C(=O)NCC#Cc2ccc3nc(Nc4ccc(C(=O)NC5CCN(C)CC5)cc4)ncc3c2)c(=O)n(Cc2ccc(F)c(F)c2)n1C | 11.6
Cc1c(C(=O)NCC#Cc2ccc3nc(Nc4ccc(N(C)C)cc4)ncc3c2)c(=O)n(Cc2ccc(F)c(F)c2)n1C | 14.3
COc1ccc(Nc2ncc3cc(C#CCNC(=O)c4c(C)n(C)n(Cc5ccc(F)c(F)c5)c4=O)ccc3n2)cc1 | 14.7
Cc1c(C(=O)NCC#Cc2ccc3nc(Nc4ccc(C(=O)N(C)C5CCN(C)CC5)cc4)ncc3c2)c(=O)n(Cc2ccc(F)c(F)c2)n1C | 12.4
COc1cc(Nc2ncc3cc(C#CCNC(=O)c4c(C)n(C)n(Cc5ccc(F)c(F)c5)c4=O)ccc3n2)ccc1C(=O)NC1CCN(C)CC1 | 15
Cc1c(C(=O)NCC#Cc2ccc3nc(Nc4ccc(C(=O)NC5CCN(C)CC5)c(F)c4)ncc3c2)c(=O)n(Cc2ccc(F)c(F)c2)n1C | 11
CCN1CCC(NC(=O)c2ccc(Nc3ncc4cc(C#CCNC(=O)c5c(C)n(C)n(Cc6ccc(F)c(F)c6)c5=O)ccc4n3)cc2)CC1 | 13.7
Cc1c(C(=O)NCC#Cc2ccc3nc(Nc4ccc(C(=O)NC5CCN(C6CC6)CC5)cc4)ncc3c2)c(=O)n(Cc2ccc(F)c(F)c2)n1C | 11.6
COCCN(C)C(=O)c1ccc(Nc2ncc3cc(C#CCNC(=O)c4c(C)n(C)n(Cc5ccc(F)c(F)c5)c4=O)ccc3n2)cc1 | 17.2
COCCNC(=O)c1ccc(Nc2ncc3cc(C#CCNC(=O)c4c(C)n(C)n(Cc5ccc(F)c(F)c5)c4=O)ccc3n2)cc1 | 20.1
Cc1c(C#CCNC(=O)c2c(C)n(C)n(Cc3ccc(F)c(F)c3)c2=O)ccc2nc(Nc3ccccc3)ncc12 | 12.4
Cc1c(C(=O)NCC#Cc2ccc3nc(Nc4ccccc4F)ncc3c2)c(=O)n(Cc2ccc(F)c(F)c2)n1C | 17.1
Cc1c(C(=O)NCC#Cc2ccc3nc(NC(C)C)ncc3c2)c(=O)n(Cc2ccc(F)c(F)c2)n1C | 24.4
Cc1c(C(=O)NCC#Cc2ccc3nc(NC4CCOCC4)ncc3c2)c(=O)n(Cc2ccc(F)c(F)c2)n1C | 25
Cc1c(C(=O)NCC#Cc2ccc3nc(NC4CCC4)ncc3c2)c(=O)n(Cc2ccc(F)c(F)c2)n1C | 12.3
CCNc1ncc2cc(C#CCNC(=O)c3cncn(Cc4ccc(F)c(F)c4)c3=O)ccc2n1 | 17.6
CNc1ncc2cc(C#CCNC(=O)c3c(C)n(C)n(Cc4ccc(F)c(F)c4)c3=O)ccc2n1 | 14.9

Compound | remaining activity at 10 µM [%]
Cc1c(C(=O)NCC#Cc2ccc3nc(Nc4ccc(C(=O)NC5CCC(C)CC5)cc4)ncc3c2)c(=O)n(Cc2ccc(F)c(F)c2)n1C (stereo not drawn) | 20.8
Cc1c(C(=O)NCC#Cc2ccc3nc(Nc4ccc(C(=O)NCCN(C)C)cc4)ncc3c2)c(=O)n(Cc2ccc(F)c(F)c2)n1C | 10.8
Cc1c(C(=O)NCC#Cc2ccc3nc(Nc4ccc(C(=O)NCCCN(C)C)cc4)ncc3c2)c(=O)n(Cc2ccc(F)c(F)c2)n1C | 13.1
Cc1c(C(=O)NCC#Cc2ccc3nc(Nc4ccc(C(=O)N(C)CCO)cc4)ncc3c2)c(=O)n(Cc2ccc(F)c(F)c2)n1C | 14.4
COCCCNC(=O)c1ccc(Nc2ncc3cc(C#CCNC(=O)c4c(C)n(C)n(Cc5ccc(F)c(F)c5)c4=O)ccc3n2)cc1 | 12.1
Cc1c(C(=O)NCC#Cc2ccc3nc(Nc4ccc(C(=O)NCCCO)cc4)ncc3c2)c(=O)n(Cc2ccc(F)c(F)c2)n1C | 15.2
COCCCN(C)C(=O)c1ccc(Nc2ncc3cc(C#CCNC(=O)c4c(C)n(C)n(Cc5ccc(F)c(F)c5)c4=O)ccc3n2)cc1 | 16
Cc1c(C(=O)NCC#Cc2ccc3nc(Nc4ccc(C(=O)N(C)CCCO)cc4)ncc3c2)c(=O)n(Cc2ccc(F)c(F)c2)n1C | 23.2
CC1CCC(NC(=O)c2ccc(Nc3ncc4cc(C#CCNC(=O)c5cncn(Cc6ccc(F)c(F)c6)c5=O)ccc4n3)cc2)CC1 (stereo not drawn) | 19.7
CN(C)CCNC(=O)c1ccc(Nc2ncc3cc(C#CCNC(=O)c4cncn(Cc5ccc(F)c(F)c5)c4=O)ccc3n2)cc1 | 18.5
CN(C)CCCNC(=O)c1ccc(Nc2ncc3cc(C#CCNC(=O)c4cncn(Cc5ccc(F)c(F)c5)c4=O)ccc3n2)cc1 | 18.3
CCNc1ncc2cc(/C=C/CNC(=O)c3cncn(Cc4ccc(F)c(F)c4)c3=O)ccc2n1 | 23.5
O=C(NC/C=C/c1ccc2nc(NC3CC3)ncc2c1)c1cncn(Cc2ccc(F)c(F)c2)c1=O | 17
COc1ccc(Nc2ncc3cc(/C=C/CNC(=O)c4cncn(Cc5ccc(F)c(F)c5)c4=O)ccc3n2)cc1 | 13.8
COC(=O)c1ccc(Nc2ncc3cc(/C=C/CNC(=O)c4cncn(Cc5ccc(F)c(F)c5)c4=O)ccc3n2)cc1Cl | 22.5
Cc1c(C(=O)NC/C=C/c2ccc3nc(N)ncc3c2)c(=O)n(Cc2ccc(F)c(F)c2)n1C | 23
CNc1ncc2cc(/C=C/CNC(=O)c3cncn(Cc4ccc(F)c(F)c4)c3=O)ccc2n1 | 21.7
Cc1c(C(=O)NC/C=C/c2ccc3nc(Nc4ccc(C(=O)NCCCN(C)C)cc4)ncc3c2)c(=O)n(Cc2ccc(F)c(F)c2)n1C | 16.9
Cc1ncc(C(=O)NC/C=C/c2ccc3nc(Nc4ccc(CN(C)C)cc4)ncc3c2)c(=O)n1Cc1ccc(F)c(F)c1 | 13.8

Compound | remaining activity at 10 µM [%]
COC(=O)c1ccc(Nc2ncc3cc(/C=C/CNC(=O)c4c(C)n(C)n(Cc5ccc(F)c(F)c5)c4=O)ccc3n2)cc1 | 20.7
Cc1c(C(=O)NC/C=C/c2ccc3nc(Nc4ccc(C(=O)N(C)C5CCN(C)CC5)c(F)c4)ncc3c2)c(=O)n(Cc2ccc(F)c(F)c2)n1C | 13.7
Cc1c(C(=O)NC/C=C/c2ccc3nc(Nc4ccc(C(=O)NC5CCN(C)CC5)c(F)c4)ncc3c2)c(=O)n(Cc2ccc(F)c(F)c2)n1C | 18.1
COc1cc(Nc2ncc3cc(/C=C/CNC(=O)c4cncn(Cc5ccc(F)c(F)c5)c4=O)ccc3n2)ccc1C(=O)NC1CCN(C)CC1 | 29
COc1cc(Nc2ncc3cc(/C=C/CNC(=O)c4c(C)n(C)n(Cc5ccc(F)c(F)c5)c4=O)ccc3n2)ccc1C(=O)NC1CCN(C)CC1 | 10.2
CN1CCC(NC(=O)c2ccc(Nc3ncc4cc(/C=C/CNC(=O)c5cncn(Cc6ccc(F)c(F)c6)c5=O)ccc4n3)cc2Cl)CC1 | 22.4
Cc1c(C(=O)NC/C=C/c2ccc3nc(Nc4ccc(C(=O)NC5CCN(C)CC5)c(Cl)c4)ncc3c2)c(=O)n(Cc2ccc(F)c(F)c2)n1C | 14.4
CN1CCC(NC(=O)c2ccc(Nc3ncc4cc(/C=C/CNC(=O)c5cncn(Cc6ccc(F)c(F)c6)c5=O)ccc4n3)cc2F)CC1 | 19.7
CNC(=O)c1ccc(Nc2ncc3cc(/C=C/CNC(=O)c4cncn(Cc5ccc(F)c(F)c5)c4=O)ccc3n2)cc1Cl | 14.1
CNC(=O)c1ccc(Nc2ncc3cc(/C=C/CNC(=O)c4c(C)n(C)n(Cc5ccc(F)c(F)c5)c4=O)ccc3n2)cc1Cl | 18.6
Cc1c(C(=O)NC/C=C/c2ccc3nc(Nc4ccc(C(=O)N(C)C5CCN(C)CC5)c(Cl)c4)ncc3c2)c(=O)n(Cc2ccc(F)c(F)c2)n1C | 15.8
CNc1ncc2cc(/C=C/CNC(=O)c3c(C)n(C)n(Cc4ccc(F)c(F)c4)c3=O)ccc2n1 | 16.1
O=C(NC/C=C/c1ccc2nc(Nc3ccccn3)ncc2c1)c1cncn(Cc2ccc(F)c(F)c2)c1=O | 18.4
Cc1c(C(=O)NC/C=C/c2ccc3nc(Nc4ccccn4)ncc3c2)c(=O)n(Cc2ccc(F)c(F)c2)n1C | 22.7
O=C(NC/C=C/c1ccc2nc(Nc3ccncc3)ncc2c1)c1cncn(Cc2ccc(F)c(F)c2)c1=O | 12.1
COC(=O)c1ccc(Nc2ncc3cc(/C=C/CNC(=O)c4cncn(Cc5ccc(F)c(F)c5)c4=O)ccc3n2)cc1OC | 38.2
COC(=O)c1ccc(Nc2ncc3cc(/C=C/CNC(=O)c4c(C)n(C)n(Cc5ccc(F)c(F)c5)c4=O)ccc3n2)cc1OC | 13.6
Cc1c(C(=O)NC/C=C/c2ccc3nc(Nc4ccc(C(=O)O)cc4)ncc3c2)c(=O)n(Cc2ccc(F)c(F)c2)n1C | 12.9
CN1CCC(N(C)c2ccc(Nc3ncc4cc(/C=C/CNC(=O)c5nc(Cl)cn(Cc6ccc(F)c(F)c6)c5=O)ccc4n3)cc2)CC1 | 12.6

From US20110313156A1 (BOEHRINGER INGELHEIM INTERNATIONAL GMBH, priority 2008, published 2011)
